According to patent EP4342885A1, “N-(3-(AMINOMETHYL)-PHENYL)-5-(4-PHENYL)-5-(TRIFLUOROMETHYL)-4,5-DIHYDROISOXAZOL-3-AMINE DERIVATIVES AND SIMILAR COMPOUNDS AS PESTICIDES” (priority 2022, dated 2024):

Key:
Format in all cases: in vivo
Myzus persicae = test: Green peach aphid (Myzus persicae), mixed life stages, systemic test via artificial diet under membrane; conditions: 72 h, read-out: mortality in comparison with untreated controls
From the text: For evaluating control of Green Peach Aphid through systemic means the test unit consisted of 96-well-microtiter plates containing liquid artificial diet under an artificial membrane. The compounds were formulated using a solution containing 75% v/v water and 25% v/v DMSO. Different concentrations of formulated compounds were pipetted into the aphid diet, using a custom-built pipette, at two replications. After application, 5 - 8 adult aphids were placed on the artificial membrane inside the microtiter plate wells. The aphids were then allowed to suck on the treated aphid diet and incubated at about 23 ± 1°C and about 50 ± 5 % relative humidity for 3 days. Aphid mortality and fecundity was then visually assessed.

Aedes aegypti = test: whole plant or invertebrate; conditions: 48 h, larval mortality, 2 days, read-out: mortality in comparison with untreated controls
Procedure: For evaluating control of Yellow Fever Mosquito, the test unit consisted of 96-well-microtiter plates containing 200µl of tap water per well and 5-15 freshly hatched A. aegypti larvae. The active compounds were formulated using a solution containing 75% (v/v) water and 25% (v/v) DMSO. Different concentrations of formulated compounds or mixtures were sprayed onto the insect diet at 2.5µl, using a custom-built micro atomizer, at two replications.
After application, microtiter plates were incubated at 28 ± 1°C, 80 ± 5 % RH for 2 days. Larval mortality was then visually assessed.

Anthonomus grandis = test: Boll weevil (Anthonomus grandis) control, 96-well microtiter plate insect diet with eggs; conditions: 120 h, read-out: mortality in comparison with untreated controls
Procedure: For evaluating control of boll weevil, the test unit consisted of 96-well-microtiter plates containing an insect diet and 5-10 A. grandis eggs.
The compounds were formulated using a solution containing 75% v/v water and 25% v/v DMSO. Different concentrations of formulated compounds were sprayed onto the insect diet at 5µl, using a custom-built micro atomizer, at two replications.
After application, microtiter plates were incubated at about 25 ± 1°C and about 75 ± 5 % relative humidity for 5 days. Egg and larval mortality were then visually assessed.

Heliothis virescens = test: Tobacco budworm (Heliothis virescens) control, 96-well microtiter plate insect diet with eggs; conditions: 120 h, read-out: mortality in comparison with untreated controls
Procedure: For evaluating control of Tobacco Budworm, the test unit consisted of 96-well-microtiter plates containing an insect diet and 15-25 H. virescens eggs. The compounds were formulated using a solution containing 75% v/v water and 25% v/v DMSO. Different concentrations of formulated compounds were sprayed onto the insect diet at 10µl, using a custom-built micro atomizer, at two replications. After application, microtiter plates were incubated at about 28 ± 1°C and about 80 ± 5 % relative humidity for 5 days. Egg and larval mortality was then visually assessed.

Plutella xylostella = test: Diamond back moth (Plutella xylostella) control, 96-well microtiter plate insect diet with eggs; conditions: 120 h, read-out: mortality in comparison with untreated controls
Procedure: For evaluating control of […] (Plutella xylostella) the test unit consisted of 96-well-microtiter plates containing an insect diet and 15-25 P. xylostella eggs.
The compounds or mixtures were formulated using a solution containing 75% water and 25% DMSO. Different concentrations of formulated compounds or mixtures were sprayed onto the insect diet at 5µl, using a custom-built micro atomizer, at two replications.
After application, microtiter plates were incubated at 28 ± 1°C, 80 ± 5 % RH for 5 days. Egg and larval mortality was then visually assessed.

Measured: mortality at 800 ppm

O=C(CN1CCCC1=O)NCc1cc(NC2=NOC(c3ccc(F)c(Cl)c3)(C(F)(F)F)C2)ccc1Cl (stereo not drawn) [I-31]
≥ 75%: Myzus persicae | Aedes aegypti

O=C(NCc1cc(NC2=NOC(c3ccc(F)c(Cl)c3)(C(F)(F)F)C2)ccc1Cl)C1CC1(F)F (stereo not drawn) [I-48]
≥ 75%: Anthonomus grandis | Myzus persicae | Heliothis virescens | Aedes aegypti | Plutella xylostella

O=C(NCc1cc(OC2=NOC(c3cc(Cl)c(F)c(Cl)c3)(C(F)(F)F)C2)ccc1F)C1CC1 (stereo not drawn) [I-22]
≥ 75%: Anthonomus grandis | Myzus persicae | Heliothis virescens | Aedes aegypti | Plutella xylostella

O=C(Cn1cccn1)NCc1cc(NC2=NOC(c3ccc(F)c(Cl)c3)(C(F)(F)F)C2)ccc1Cl (stereo not drawn) [I-38]
≥ 75%: Anthonomus grandis | Aedes aegypti | Plutella xylostella

Cn1ncc(C#N)c1C(=O)NCc1cc(NC2=NOC(c3ccc(F)c(Cl)c3)(C(F)(F)F)C2)ccc1Cl (stereo not drawn) [I-37]
≥ 75%: Aedes aegypti | Plutella xylostella

O=C(Cn1cncn1)NCc1cc(NC2=NOC(c3ccc(F)c(Cl)c3)(C(F)(F)F)C2)ccc1Cl (stereo not drawn) [I-40]
≥ 75%: Anthonomus grandis | Myzus persicae | Aedes aegypti | Plutella xylostella

COCCC(=O)NCc1cc(NC2=NOC(c3cc(Cl)cc(Cl)c3)(C(F)(F)F)C2)ccc1F (stereo not drawn) [I-3]
≥ 75%: Anthonomus grandis | Myzus persicae | Heliothis virescens | Aedes aegypti

O=C(N[C@H]1CCc2ccc(NC3=NOC(c4ccc(F)c(Cl)c4)(C(F)(F)F)C3)cc21)C1CC1 (stereo partly drawn) [III-1]
≥ 75%: Anthonomus grandis | Myzus persicae | Heliothis virescens | Aedes aegypti | Plutella xylostella

O=C(CNC(=O)C1CC1)NCc1cc(NC2=NOC(c3ccc(F)c(Cl)c3)(C(F)(F)F)C2)ccc1Cl (stereo not drawn) [I-26]
≥ 75%: Anthonomus grandis | Myzus persicae | Aedes aegypti | Plutella xylostella

CCN(C1=NOC(c2cc(Cl)c(F)c(Cl)c2)(C(F)(F)F)C1)c1ccc(F)c(CNC(=O)C2CC2)c1 (stereo not drawn) [I-15]
≥ 75%: Anthonomus grandis | Myzus persicae | Heliothis virescens | Aedes aegypti | Plutella xylostella

COCC(=O)NCc1cc(NC2=NOC(c3cc(Cl)cc(Cl)c3)(C(F)(F)F)C2)ccc1F (stereo not drawn) [I-9]
≥ 75%: Anthonomus grandis | Myzus persicae

O=C(NCc1cc(NC2=NOC(c3cc(Cl)c(F)c(Cl)c3)(C(F)(F)F)C2)ccc1Cl)C1CC1 (stereo not drawn) [I-14]
≥ 75%: Anthonomus grandis | Myzus persicae | Heliothis virescens | Aedes aegypti | Plutella xylostella

O=C(Cc1ccsc1)NCc1cc(NC2=NOC(c3ccc(F)c(Cl)c3)(C(F)(F)F)C2)ccc1Cl (stereo not drawn) [I-44]
≥ 75%: Anthonomus grandis | Myzus persicae | Aedes aegypti | Plutella xylostella

N#CC1(C(=O)NCc2cc(NC3=NOC(c4ccc(F)c(Cl)c4)(C(F)(F)F)C3)ccc2Cl)CC1 (stereo not drawn) [I-32]
≥ 75%: Anthonomus grandis | Myzus persicae | Heliothis virescens | Aedes aegypti | Plutella xylostella

CS(=O)(=O)CC(=O)NCc1cc(NC2=NOC(c3cc(Cl)cc(Cl)c3)(C(F)(F)F)C2)ccc1F (stereo not drawn) [I-4]
≥ 75%: Anthonomus grandis | Myzus persicae | Heliothis virescens | Aedes aegypti

CCC(=O)NCc1cc(NC2=NOC(c3ccc(F)c(Cl)c3)(C(F)(F)F)C2)ccc1Cl (stereo not drawn) [I-50]
≥ 75%: Anthonomus grandis | Myzus persicae | Heliothis virescens | Aedes aegypti | Plutella xylostella

O=C(NCc1cc(NC2=NOC(c3ccc(F)c(Cl)c3)(C(F)(F)F)C2)ccc1Cl)C1CC1 (stereo not drawn) [I-21]
≥ 75%: Anthonomus grandis | Myzus persicae | Heliothis virescens | Aedes aegypti | Plutella xylostella

CC(C)C(=O)NCc1cc(NC2=NOC(c3ccc(F)c(Cl)c3)(C(F)(F)F)C2)ccc1Cl (stereo not drawn) [I-25]
≥ 75%: Anthonomus grandis | Myzus persicae | Heliothis virescens | Aedes aegypti | Plutella xylostella

O=C(NCc1cc(NC2=NOC(c3ccc(F)c(Cl)c3)(C(F)(F)F)C2)ccc1Cl)C1CSC1 (stereo not drawn) [I-45]
≥ 75%: Anthonomus grandis | Myzus persicae | Heliothis virescens | Aedes aegypti | Plutella xylostella

O=C(Cc1ccccc1)NCc1cc(NC2=NOC(c3ccc(F)c(Cl)c3)(C(F)(F)F)C2)ccc1Cl (stereo not drawn) [I-27]
≥ 75%: Aedes aegypti

CC(C)CC(=O)NCc1cc(NC2=NOC(c3ccc(F)c(Cl)c3)(C(F)(F)F)C2)ccc1Cl (stereo not drawn) [I-28]
≥ 75%: Anthonomus grandis | Myzus persicae | Heliothis virescens | Aedes aegypti | Plutella xylostella

O=C(CC1OCCO1)NCc1cc(NC2=NOC(c3ccc(F)c(Cl)c3)(C(F)(F)F)C2)ccc1Cl (stereo not drawn) [I-33]
≥ 75%: Anthonomus grandis | Aedes aegypti | Plutella xylostella

O=C(NCc1cc(NC2=NOC(c3ccc(F)c(Cl)c3)(C(F)(F)F)C2)ccc1Cl)C1CC=CC1 (stereo not drawn) [I-29]
≥ 75%: Anthonomus grandis | Myzus persicae | Aedes aegypti | Plutella xylostella

O=C(NCc1cc(NC2=NOC(c3cc(Cl)c(F)c(Cl)c3)(C(F)(F)F)C2)ccc1F)C1CC1 (stereo not drawn) [I-16]
≥ 75%: Anthonomus grandis | Myzus persicae | Heliothis virescens | Aedes aegypti | Plutella xylostella

CS(=O)(=O)N1CC(C(=O)NCc2cc(NC3=NOC(c4ccc(F)c(Cl)c4)(C(F)(F)F)C3)ccc2Cl)C1 (stereo not drawn) [I-46]
≥ 75%: Anthonomus grandis | Myzus persicae | Aedes aegypti | Plutella xylostella

CCC(=O)NCc1cc(NC2=NOC(c3cc(Cl)cc(Cl)c3)(C(F)(F)F)C2)ccc1F (stereo not drawn) [I-2]
≥ 75%: Anthonomus grandis | Myzus persicae | Heliothis virescens | Plutella xylostella

N#CCC(=O)NCc1cc(NC2=NOC(c3ccc(F)c(Cl)c3)(C(F)(F)F)C2)ccc1Cl (stereo not drawn) [I-51]
≥ 75%: Anthonomus grandis | Myzus persicae | Aedes aegypti | Plutella xylostella

COC(=O)N1CCCC1C(=O)NCc1cc(NC2=NOC(c3cc(Cl)cc(Cl)c3)(C(F)(F)F)C2)ccc1F (stereo not drawn) [I-10]
≥ 75%: Anthonomus grandis

O=C(CC1CC1)NCc1cc(NC2=NOC(c3cc(Cl)cc(Cl)c3)(C(F)(F)F)C2)ccc1F (stereo not drawn) [I-6]
≥ 75%: Anthonomus grandis | Myzus persicae | Heliothis virescens | Aedes aegypti

N#Cc1ccc(C(=O)NCc2cc(NC3=NOC(c4ccc(F)c(Cl)c4)(C(F)(F)F)C3)ccc2Cl)s1 (stereo not drawn) [I-34]
≥ 75%: Anthonomus grandis | Aedes aegypti | Plutella xylostella

CN(Cc1cc(NC2=NOC(c3cc(Cl)c(F)c(Cl)c3)(C(F)(F)F)C2)ccc1F)C(=O)C1CC1 (stereo not drawn) [I-17]
≥ 75%: Anthonomus grandis | Heliothis virescens | Aedes aegypti | Plutella xylostella

O=C(NCc1cc(NC2=NOC(c3cc(Cl)cc(Cl)c3)(C(F)(F)F)C2)ccc1F)c1ncon1 (stereo not drawn) [I-7]
≥ 75%: Anthonomus grandis

O=C(CC1CCS(=O)(=O)C1)NCc1cc(NC2=NOC(c3ccc(F)c(Cl)c3)(C(F)(F)F)C2)ccc1Cl (stereo not drawn) [I-49]
≥ 75%: Anthonomus grandis | Myzus persicae | Aedes aegypti

CS(=O)(=O)NCC(=O)NCc1cc(NC2=NOC(c3ccc(F)c(Cl)c3)(C(F)(F)F)C2)ccc1Cl (stereo not drawn) [I-47]
≥ 75%: Anthonomus grandis | Myzus persicae | Aedes aegypti | Plutella xylostella

O=C(NCc1cc(NC2=NOC(c3cc(Cl)cc(Cl)c3)(C(F)(F)F)C2)ccc1F)c1ccccn1 (stereo not drawn) [I-11]
≥ 75%: Anthonomus grandis | Plutella xylostella

CON=CC(=O)NCc1cc(NC2=NOC(c3cc(Cl)cc(Cl)c3)(C(F)(F)F)C2)ccc1F (stereo not drawn) [I-12]
≥ 75%: Anthonomus grandis | Myzus persicae | Heliothis virescens | Plutella xylostella
